Data as given in US8852869B2, “Method of determining functional deficiencies in the complement system” (Immunobond ApS, priority 2007, dated 2014).

System: alternative complement pathway (AP)
Experiment: Functional capacity of the alternative pathway on LPS-coated surface
Assay type: biochemical, human
Conditions: 10 mM EDTA present in the dilution buffer; data not shown
Protocol: The protocol for the functional capacity of the AP was similar to the method for the CP assay, with the following modification: Lipopolysaccharide W S. typhimurium (10 ug/ml) (lot. 51974, DICO LABORAORIES, US) was coated in 1M NaCl and used as activating surface for AP activation. The serum samples were diluted in dilution buffer with 4 mM Mg^2+, 10 mM EGTA, and 0.05% Tween-20 and were incubated for 60 min at 37° C. The C3, properdin and C9 deposition was measured by adding 100 μl of mAbs.
The influence of PAS on complement activation via the AP was also analyzed. NHS and C2-deficient serum diluted in dilution buffer containing 4 mM Mg^2+ and 10 mM EGTA was incubated in microtiter-wells (PolySorp), coated with LPS as described above in the presence or absence of PAS and deposition of complement components (C3b/C3bi, properdin and C9) was detected.
Various concentrations of PAS were used in order to determine a dose-response curve for PAS. Experiments were performed as described above only with varying the amount of PAS added to the sample.

For `O=C(O)CN(CCN(CC(=O)O)CC(=O)O)CC(=O)O` [EDTA], the “Deposition of C3, properdin and C9 (all three complement components)” value was “reduced to background levels”.
